Protocol: The amount of solvent and CMF used are detailed in Table 1.
Once the vials were filled and sealed, each vial was held at the temperatures listed in Table 1 above for 20-30 minutes, at which time a sample was taken and analyzed by HPLC.
An aliquot was analyzed by HPLC. The following HPLC protocol was used. The column was an Agilent Technologies RX-Sil silica column; 4.6×100 mm packed with 1.8 micron silica beads. Column temperature was maintained at 50° C. Injection volume was 1.0 microliter. Mobile phase composition was 80% hexane and 20% tetrahydrofuran flowing at 1.0 mL/min.

Row | solubility for CMF | Structure (SMILES)
1 | relatively low solubility | CCCCCCCCCCCCCCCCCCCC [Eicosane]
2 | relatively low solubility | CCCCCCCCCCCCCC [Tetradecane]

Second part, the molecule before the results:

Row | Structure (SMILES) | solubility for CMF
3 | Clc1ccccc1 [Chlorobenzene] | relatively soluble
4 | CCCCCCCCCC [Decane] | relatively low solubility
5 | CCCCCC [Hexane] | relatively low solubility
6 | CCCCC [Pentane] | relatively low solubility

Source: patent US9388151B2, “Methods for producing 5-(halomethyl) furfural” (MICROMIDAS, INC., priority 2012, dated 2016)
